Laboratory results published in patent US6737383B1, “Herbicidal oxadiazolidines” (priority 1999, dated 2004).

Columns and labels:
bedstraw = assay: Test B pre/postemergence bedstraw; assay type: in vivo, Galium aparine
How it was run: (§1)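 Test chemicals in a non-phytotoxic solvent mixture with surfactant were sprayed preemergence onto planted seeds and postemergence onto plants 2 to 18 cm tall (1- to 4-leaf stage). After twelve to sixteen days in a greenhouse, injury was visually rated against untreated controls from 0 (no effect) to 10 (complete control).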

blackgrass = assay: Test B pre/postemergence blackgrass; assay type: in vivo, Alopecurus myosuroides
How it was run: as §1

surinam grass = assay: Test B pre/postemergence surinam grass; assay type: in vivo, Brachiaria decumbens
How it was run: as §1

corn = assay: Test B pre/postemergence corn; assay type: in vivo, Zea mays
How it was run: as §1

giant foxtail = assay: Test B pre/postemergence giant foxtail; assay type: in vivo, Setaria faberii
How it was run: as §1

morningglory = assay: Test B pre/postemergence morningglory; assay type: in vivo, Ipomoea hederacea
How it was run: as §1

pigweed = assay: Test B pre/postemergence pigweed; assay type: in vivo, Amaranthus retroflexus
How it was run: as §1

rape = assay: Test B pre/postemergence rape; assay type: in vivo, Brassica napus
How it was run: as §1

soybean = assay: Test B pre/postemergence soybean; assay type: in vivo, Glycine max
How it was run: as §1

sugar beet = assay: Test B pre/postemergence sugar beet; assay type: in vivo, Beta vulgaris
How it was run: as §1

velvetleaf = assay: Test B pre/postemergence velvetleaf; assay type: in vivo, Abutilon theophrasti
How it was run: as §1

purple nutsedge = assay: Test B pre/postemergence purple nutsedge; assay type: in vivo, Cyperus rotundus
How it was run: as §1

rice = assay: Test B flood test rice; assay type: in vivo, Oryza sativa
How it was run: (§2)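 Plants were grown to the 2-leaf stage before treatment with test chemical, then held in a greenhouse for twelve to sixteen days. Injury was visually rated against untreated controls on a 0–10 scale, where 0 is no effect and 10 is complete control.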

smallflower flatsedge = assay: Test B flood test smallflower flatsedge; assay type: in vivo, Cyperus difformis
How it was run: as §2

duck salad = assay: Test B flood test duck salad; assay type: in vivo, Heteranthera limosa
How it was run: as §2

bamyardgrass = assay: Test B flood test barnyardgrass; assay type: in vivo, Echinochloa crus-galli
How it was run: as §2

[1] = Postemergence, Rate 62 g/ha, scale 0 to 10, 0 is no effect, 10 is complete control
[2] = Postemergence, Rate 250 g/ha, scale 0 to 10, 0 no effect, 10 complete control
[3] = Preemergence, Rate 62 g/ha, scale 0 to 10, 0 is no effect, 10 is complete control
[4] = Preemergence, Rate 125 g/ha, scale 0 to 10 (0 no effect, 10 complete control)
[5] = Preemergence, Rate 250 g/ha, scale of 0 to 10 where 0 is no effect and 10 is complete control
[6] = Preemergence, Rate 500 g/ha, scale 0 (no effect) to 10 (complete control)
[7] = Rate 125 g/ha, Postemergence, scale 0 to 10, 0 no effect, 10 complete control
[8] = Rate 500 g/ha, Postemergence, scale 0 to 10, 0 no effect, 10 complete control
[9] = Rate 125 g/ha, Postemergence section (flood test species), scale 0 to 10, 0 no effect, 10 complete control
[10] = Rate 500 g/ha, listed under Postemergence (flood test species), scale 0 to 10, 0 no effect, 10 complete control
[11] = flood test, listed under Postemergence, Rate 250 g/ha, scale 0 to 10, 0 no effect, 10 complete control

Cc1ccccc1-n1c(=O)on(C(=O)N(c2ccc(C#N)cc2)C(C)C)c1=O [Compound 51]
Bedstraw plant response rating (bedstraw; [1]): 0 | Bedstraw plant response rating (bedstraw; [2]): 0 | Plant response rating, Bedstraw (bedstraw; [3]): 0 | Plant response rating, Bedstraw (bedstraw; [4]): 0 | Plant response rating, Bedstraw (bedstraw; [5]): 0 | Bedstraw plant response rating (bedstraw; [6]): 0 | Bedstraw plant response rating (bedstraw; [7]): 0 | Blackgrass plant response rating (blackgrass; [1]): 0 | Blackgrass plant response rating (blackgrass; [2]): 0 | Plant response rating, Blackgrass (blackgrass; [3]): 0 | Plant response rating, Blackgrass (blackgrass; [4]): 0 | Plant response rating, Blackgrass (blackgrass; [5]): 0 | Blackgrass plant response rating (blackgrass; [6]): 0 | Blackgrass plant response rating (blackgrass; [7]): 0 | Blackgrass plant response rating (blackgrass; [8]): 0 | B. signalgrass plant response rating (surinam grass; [1]): 0 | B. signalgrass plant response rating (surinam grass; [2]): 0 | Plant response rating, B. signalgrass (surinam grass; [3]): 0 | Plant response rating, B. signalgrass (surinam grass; [4]): 0 | Plant response rating, B. signalgrass (surinam grass; [5]): 0 | B. signalgrass plant response rating (surinam grass; [6]): 0 | B. signalgrass plant response rating (surinam grass; [7]): 0 | B. signalgrass plant response rating (surinam grass; Rate 500 g/ha, Postemergence, scale of 0 to 10 where 0 is no effect and 10 is complete control): 0 | Corn plant response rating (corn; [1]): 0 | Corn plant response rating (corn; [2]): 0 | Plant response rating, Corn (corn; [3]): 0 | Plant response rating, Corn (corn; [4]): 0 | Plant response rating, Corn (corn; [5]): 0 | Corn plant response rating (corn; [6]): 0 | Corn plant response rating (corn; [7]): 0 | Corn plant response rating (corn; [8]): 0 | Giant foxtail plant response rating (giant foxtail; [1]): 0 | Giant foxtail plant response rating (giant foxtail; [2]): 0 | Plant response rating, Giant foxtail (giant foxtail; [3]): 0 | Plant response rating, Giant foxtail (giant foxtail; [4]): 2 | Plant response rating, Giant foxtail (giant foxtail; [5]): 4 | Giant foxtail plant response rating (giant foxtail; [6]): 8 | Giant foxtail plant response rating (giant foxtail; [7]): 0 | Giant foxtail plant response rating (giant foxtail; [8]): 3 | Morningglory plant response rating (morningglory; [1]): 0 | Morningglory plant response rating (morningglory; [2]): 0 | Plant response rating, Morningglory (morningglory; [3]): 0 | Plant response rating, Morningglory (morningglory; [4]): 0 | Plant response rating, Morningglory (morningglory; [5]): 0 | Morningglory plant response rating (morningglory; [6]): 0 | Morningglory plant response rating (morningglory; [7]): 0 | Morningglory plant response rating (morningglory; [8]): 1 | Redroot pigweed plant response rating (pigweed; [1]): 0 | Redroot pigweed plant response rating (pigweed; [2]): 0 | Plant response rating, Redroot pigweed (pigweed; [3]): 0 | Plant response rating, Redroot pigweed (pigweed; [4]): 0 | Plant response rating, Redroot pigweed (pigweed; [5]): 0 | Redroot pigweed plant response rating (pigweed; [6]): 0 | Redroot pigweed plant response rating (pigweed; [7]): 0 | Redroot pigweed plant response rating (pigweed; [8]): 0 | Rape plant response rating (rape; [1]): 0 | Rape plant response rating (rape; [2]): 0 | Plant response rating, Rape (rape; [3]): 0 | Plant response rating, Rape (rape; [4]): 0 | Plant response rating, Rape (rape; [5]): 0 | Rape plant response rating (rape; [6]): 0 | Rape plant response rating (rape; [7]): 0 | Rape plant response rating (rape; [8]): 0 | Soybean plant response rating (soybean; [1]): 0 | Soybean plant response rating (soybean; [2]): 0 | Plant response rating, Soybean (soybean; [3]): 0 | Plant response rating, Soybean (soybean; [4]): 0 | Plant response rating, Soybean (soybean; [5]): 0 | Soybean plant response rating (soybean; [6]): 0 | Soybean plant response rating (soybean; [7]): 0 | Soybean plant response rating (soybean; [8]): 1 | Sugarbeets plant response rating (sugar beet; [1]): 0 | Sugarbeets plant response rating (sugar beet; [2]): 0 | Plant response rating, Sugarbeets (sugar beet; [3]): 0 | Plant response rating, Sugarbeets (sugar beet; [4]): 0 | Plant response rating, Sugarbeets (sugar beet; [5]): 0 | Sugarbeets plant response rating (sugar beet; [6]): 0 | Sugarbeets plant response rating (sugar beet; [7]): 0 | Sugarbeets plant response rating (sugar beet; [8]): 0 | Velvetleaf plant response rating (velvetleaf; [1]): 0 | Velvetleaf plant response rating (velvetleaf; [2]): 0 | Plant response rating, Velvetleaf (velvetleaf; [3]): 0 | Plant response rating, Velvetleaf (velvetleaf; [4]): 0 | Plant response rating, Velvetleaf (velvetleaf; [5]): 0 | Velvetleaf plant response rating (velvetleaf; [6]): 0 | Velvetleaf plant response rating (velvetleaf; [7]): 0 | Velvetleaf plant response rating (velvetleaf; [8]): 0 | Nutsedge plant response rating (purple nutsedge; [1]): 0 | Nutsedge plant response rating (purple nutsedge; [2]): 0 | Plant response rating, Nutsedge (purple nutsedge; [3]): 0 | Plant response rating, Nutsedge (purple nutsedge; [4]): 0 | Plant response rating, Nutsedge (purple nutsedge; [5]): 0 | Nutsedge plant response rating (purple nutsedge; [6]): 0 | Nutsedge plant response rating (purple nutsedge; [7]): 0 | Nutsedge plant response rating (purple nutsedge; [8]): 0 | Rice plant response rating (rice; [1]): 0 | Rice plant response rating (rice; [9]): 0 | Rice plant response rating (rice; [10]): 0 | Rice plant response rating (rice; [11]): 0 | S. Flatsedge plant response rating (smallflower flatsedge; [1]): 0 | S. Flatsedge plant response rating (smallflower flatsedge; [9]): 0 | S. Flatsedge plant response rating (smallflower flatsedge; [10]): 0 | S. Flatsedge plant response rating (smallflower flatsedge; [11]): 0 | Ducksalad plant response rating (duck salad; [1]): 0 | Ducksalad plant response rating (duck salad; [9]): 0 | Ducksalad plant response rating (duck salad; [10]): 0 | Ducksalad plant response rating (duck salad; [11]): 0 | Barnyardgrass plant response rating (bamyardgrass; [1]): 0 | Barnyardgrass plant response rating (bamyardgrass; [9]): 0 | Barnyardgrass plant response rating (bamyardgrass; [10]): 0 | Barnyardgrass plant response rating (bamyardgrass; [11]): 0
